Laboratory results: ChEMBL document CHEMBL4808172, “Structure-Activity Relationship of Heterocyclic P2Y14 Receptor Antagonists: Removal of the Zwitterionic Character with Piperidine Bioisosteres” (J Med Chem, 2021)
Calls of active or inactive are those of the source. No cut-off for these calls is given here.

What was measured:
P2Y purinoceptor 14 = target: T1, P2Y purinoceptor 14 (Homo sapiens, UniProt Q15391); test: cell-based
T1 sequence (Q15391 whole entry): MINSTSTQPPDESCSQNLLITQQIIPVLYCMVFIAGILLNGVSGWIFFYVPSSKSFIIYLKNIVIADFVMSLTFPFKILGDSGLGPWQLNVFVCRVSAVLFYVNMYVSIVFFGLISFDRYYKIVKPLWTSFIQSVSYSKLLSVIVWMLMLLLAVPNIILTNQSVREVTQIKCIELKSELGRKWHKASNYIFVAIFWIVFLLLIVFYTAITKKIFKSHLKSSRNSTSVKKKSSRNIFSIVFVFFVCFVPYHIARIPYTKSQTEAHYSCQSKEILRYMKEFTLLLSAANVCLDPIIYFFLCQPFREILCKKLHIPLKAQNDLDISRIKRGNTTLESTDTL

liver carboxylesterase [1] = target: T2, liver carboxylesterase (Sus scrofa, UniProt Q29550); test: Drug metabolism in pH 7.5 HEPES buffer assessed as porcine liver esterase-mediated compound hydrolysis by measuring half life measured up to 72 hrs by HPLC analysis; assay type: ADME, tissue-based; settings: pig
T2 sequence (Q29550 whole entry): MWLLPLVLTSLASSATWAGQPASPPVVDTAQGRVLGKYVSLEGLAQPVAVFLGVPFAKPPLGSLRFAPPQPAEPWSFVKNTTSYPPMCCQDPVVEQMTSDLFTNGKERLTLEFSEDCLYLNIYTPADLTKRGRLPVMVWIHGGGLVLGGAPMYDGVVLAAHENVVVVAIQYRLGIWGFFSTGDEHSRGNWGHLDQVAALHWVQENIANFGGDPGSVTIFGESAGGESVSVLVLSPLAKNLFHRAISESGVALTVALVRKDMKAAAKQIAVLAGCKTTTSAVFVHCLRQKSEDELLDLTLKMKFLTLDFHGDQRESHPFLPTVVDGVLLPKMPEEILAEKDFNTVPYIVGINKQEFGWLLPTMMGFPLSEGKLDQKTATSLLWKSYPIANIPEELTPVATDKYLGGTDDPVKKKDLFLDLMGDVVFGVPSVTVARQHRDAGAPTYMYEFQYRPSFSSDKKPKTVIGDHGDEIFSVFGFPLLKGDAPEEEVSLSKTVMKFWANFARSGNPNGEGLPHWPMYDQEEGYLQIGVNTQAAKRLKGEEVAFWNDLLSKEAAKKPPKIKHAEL

liver carboxylesterase [2] = target: T2, liver carboxylesterase; test: Drug metabolism in pH 7.5 HEPES buffer assessed as porcine liver esterase-mediated compound hydrolysis measured up to 72 hrs by HPLC analysis; assay type: ADME; settings: pig, read-out: Drug degradation
[3] = Stability of compound in aqueous medium after 24 hrs in absence of PLE by HPLC analysis; assay type: physicochemical; settings: buffer
Mus musculus = test: Antiinflammatory activity in mouse model of ovalbumin/Aspergillus-induced allergic asthma assessed as reduction in eosinophil counts in BALF at 20 umol/kg, ip administered 30 mins prior to allergen challenge and measured after 2 days post challenge; assay type: functional, organism-based; settings: dose 20.0 µmol/kg, time 2.0 day
liver carboxylesterase [4] = target: T2, liver carboxylesterase; test: Drug metabolism in pH 7.5 HEPES buffer assessed as porcine liver esterase-mediated compound hydrolysis by measuring half life measured up to 120 mins by HPLC analysis; assay type: ADME, tissue-based; settings: pig
[5] = target: T3, Sigma intracellular receptor 2 (Homo sapiens, UniProt Q5BJF2); test: Binding affinity to sigma 2 receptor (unknown origin)
T3 sequence (Q5BJF2 whole entry): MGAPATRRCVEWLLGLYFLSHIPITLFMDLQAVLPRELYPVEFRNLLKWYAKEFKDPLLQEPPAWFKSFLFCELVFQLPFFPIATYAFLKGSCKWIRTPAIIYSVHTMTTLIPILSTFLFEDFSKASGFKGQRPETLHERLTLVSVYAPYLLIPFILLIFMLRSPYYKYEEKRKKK

Translocator protein = Translocator protein (Homo sapiens, UniProt P30536); test: Binding affinity to TSPO (unknown origin)
Chain of Translocator protein (P30536 whole entry): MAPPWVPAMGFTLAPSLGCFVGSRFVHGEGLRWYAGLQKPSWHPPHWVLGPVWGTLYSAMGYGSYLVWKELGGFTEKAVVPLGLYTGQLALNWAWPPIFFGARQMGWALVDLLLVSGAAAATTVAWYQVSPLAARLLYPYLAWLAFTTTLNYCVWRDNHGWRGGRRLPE

[6] = target: Sigma non-opioid intracellular receptor 1 (Homo sapiens, UniProt Q99720); test: Binding affinity to sigma 1 receptor (unknown origin)
Chain of Sigma non-opioid intracellular receptor 1 (Q99720 whole entry): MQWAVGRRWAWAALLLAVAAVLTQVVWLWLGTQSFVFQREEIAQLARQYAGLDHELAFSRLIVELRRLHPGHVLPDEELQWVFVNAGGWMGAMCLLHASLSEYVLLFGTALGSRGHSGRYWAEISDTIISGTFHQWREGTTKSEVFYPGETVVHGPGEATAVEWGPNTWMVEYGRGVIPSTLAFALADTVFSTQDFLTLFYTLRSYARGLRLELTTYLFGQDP

[7] = target: 5-hydroxytryptamine receptor 1D (Homo sapiens) (UniProt P28221); test: Inhibition of 5HT1D (unknown origin) at 10 uM relative to control
Chain of 5-hydroxytryptamine receptor 1D (Homo sapiens) (P28221 whole entry): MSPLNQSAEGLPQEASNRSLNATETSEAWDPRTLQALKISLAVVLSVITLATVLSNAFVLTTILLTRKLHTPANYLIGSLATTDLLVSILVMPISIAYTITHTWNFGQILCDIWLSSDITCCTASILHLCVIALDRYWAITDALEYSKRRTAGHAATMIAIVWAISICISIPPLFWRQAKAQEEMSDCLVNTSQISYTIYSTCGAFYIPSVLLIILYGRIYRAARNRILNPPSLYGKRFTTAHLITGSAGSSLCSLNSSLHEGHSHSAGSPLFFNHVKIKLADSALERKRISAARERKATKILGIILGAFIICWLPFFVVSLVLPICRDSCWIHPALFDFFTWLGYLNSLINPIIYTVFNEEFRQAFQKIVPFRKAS

[8] = target: T4, Alpha-1B adrenergic receptor (Homo sapiens, UniProt P35368); test: Binding affinity to alpha1b (unknown origin)
T4 sequence (P35368 whole entry): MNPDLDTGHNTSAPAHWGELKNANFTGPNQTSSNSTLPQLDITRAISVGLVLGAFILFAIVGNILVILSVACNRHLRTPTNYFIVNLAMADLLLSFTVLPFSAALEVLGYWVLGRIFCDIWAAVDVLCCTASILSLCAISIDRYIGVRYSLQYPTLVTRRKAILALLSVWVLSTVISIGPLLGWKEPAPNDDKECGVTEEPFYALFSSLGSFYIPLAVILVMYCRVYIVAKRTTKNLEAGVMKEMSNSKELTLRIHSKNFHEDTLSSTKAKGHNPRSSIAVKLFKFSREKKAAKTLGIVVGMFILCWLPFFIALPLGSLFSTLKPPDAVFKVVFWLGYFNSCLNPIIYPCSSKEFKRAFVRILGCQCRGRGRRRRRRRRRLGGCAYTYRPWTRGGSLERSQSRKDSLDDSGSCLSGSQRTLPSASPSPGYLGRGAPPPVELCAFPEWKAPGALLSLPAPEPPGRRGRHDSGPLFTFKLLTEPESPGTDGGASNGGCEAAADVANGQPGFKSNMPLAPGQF

[9] = target: T5, Alpha-2A adrenergic receptor (Homo sapiens, UniProt P08913); test: Binding affinity to alpha2a (unknown origin)
T5 sequence (P08913 whole entry): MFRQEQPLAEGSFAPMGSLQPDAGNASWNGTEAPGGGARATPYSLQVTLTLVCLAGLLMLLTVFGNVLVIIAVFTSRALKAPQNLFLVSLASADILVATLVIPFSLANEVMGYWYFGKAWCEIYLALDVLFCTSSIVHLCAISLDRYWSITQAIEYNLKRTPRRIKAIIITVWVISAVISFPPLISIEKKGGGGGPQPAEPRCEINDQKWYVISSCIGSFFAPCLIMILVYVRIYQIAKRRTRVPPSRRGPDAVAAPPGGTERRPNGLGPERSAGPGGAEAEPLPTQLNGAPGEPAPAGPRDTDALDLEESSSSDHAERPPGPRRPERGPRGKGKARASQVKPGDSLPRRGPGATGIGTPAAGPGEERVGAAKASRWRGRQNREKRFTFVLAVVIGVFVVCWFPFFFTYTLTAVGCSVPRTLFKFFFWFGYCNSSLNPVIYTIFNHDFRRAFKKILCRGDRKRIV

[10] = target: T6, Alpha-2B adrenergic receptor (Homo sapiens) (UniProt P18089); test: Inhibition of alpha2b (unknown origin) at 10 uM relative to control
T6 sequence (whole entry): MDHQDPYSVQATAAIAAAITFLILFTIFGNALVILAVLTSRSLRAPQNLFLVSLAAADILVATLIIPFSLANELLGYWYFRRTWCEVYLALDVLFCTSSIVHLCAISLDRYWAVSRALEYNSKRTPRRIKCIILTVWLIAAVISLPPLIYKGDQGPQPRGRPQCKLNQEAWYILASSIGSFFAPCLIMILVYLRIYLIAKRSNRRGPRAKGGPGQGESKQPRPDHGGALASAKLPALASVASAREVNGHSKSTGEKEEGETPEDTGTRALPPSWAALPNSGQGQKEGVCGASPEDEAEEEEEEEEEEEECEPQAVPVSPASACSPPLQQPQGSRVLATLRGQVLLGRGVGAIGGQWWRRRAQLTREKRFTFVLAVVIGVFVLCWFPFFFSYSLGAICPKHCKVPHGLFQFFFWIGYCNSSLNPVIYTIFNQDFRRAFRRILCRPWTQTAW

D(1A) dopamine receptor = D(1A) dopamine receptor (Homo sapiens, UniProt P21728); test: Binding affinity to D1 receptor (unknown origin)
Chain of D(1A) dopamine receptor (P21728 whole entry): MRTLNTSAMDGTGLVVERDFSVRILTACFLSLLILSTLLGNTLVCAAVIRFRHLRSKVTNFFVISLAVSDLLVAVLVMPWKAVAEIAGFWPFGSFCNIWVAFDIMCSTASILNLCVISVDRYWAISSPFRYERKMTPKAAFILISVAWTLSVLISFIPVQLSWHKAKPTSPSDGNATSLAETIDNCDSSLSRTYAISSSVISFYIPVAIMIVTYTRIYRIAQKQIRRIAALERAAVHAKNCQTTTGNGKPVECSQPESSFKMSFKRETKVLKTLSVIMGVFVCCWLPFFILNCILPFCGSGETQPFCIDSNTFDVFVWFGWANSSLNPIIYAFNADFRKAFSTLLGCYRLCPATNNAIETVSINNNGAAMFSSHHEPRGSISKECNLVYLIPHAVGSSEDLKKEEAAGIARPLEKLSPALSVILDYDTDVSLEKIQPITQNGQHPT

D(1B) dopamine receptor = D(1B) dopamine receptor (Homo sapiens, UniProt P21918); test: Binding affinity to D5 receptor (unknown origin)
Chain of D(1B) dopamine receptor (P21918 whole entry): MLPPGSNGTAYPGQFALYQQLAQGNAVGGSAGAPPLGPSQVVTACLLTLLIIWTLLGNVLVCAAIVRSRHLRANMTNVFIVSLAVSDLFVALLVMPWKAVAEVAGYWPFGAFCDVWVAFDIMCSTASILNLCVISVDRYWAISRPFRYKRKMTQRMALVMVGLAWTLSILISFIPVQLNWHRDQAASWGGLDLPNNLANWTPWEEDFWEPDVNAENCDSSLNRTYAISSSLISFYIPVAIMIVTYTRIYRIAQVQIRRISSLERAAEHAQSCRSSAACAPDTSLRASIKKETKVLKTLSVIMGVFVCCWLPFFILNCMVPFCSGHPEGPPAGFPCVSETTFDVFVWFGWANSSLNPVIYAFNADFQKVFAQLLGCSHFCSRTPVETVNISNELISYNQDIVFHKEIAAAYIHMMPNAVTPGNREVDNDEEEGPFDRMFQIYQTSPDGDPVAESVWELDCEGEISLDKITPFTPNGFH

[11] = target: T3, Sigma intracellular receptor 2; test: Inhibition of sigma 2 receptor (unknown origin) at 10 uM relative to control
Histamine H4 receptor = Histamine H4 receptor (Homo sapiens, UniProt Q9H3N8); test: Binding affinity to H4 receptor (unknown origin)
Chain of Histamine H4 receptor (Q9H3N8 whole entry): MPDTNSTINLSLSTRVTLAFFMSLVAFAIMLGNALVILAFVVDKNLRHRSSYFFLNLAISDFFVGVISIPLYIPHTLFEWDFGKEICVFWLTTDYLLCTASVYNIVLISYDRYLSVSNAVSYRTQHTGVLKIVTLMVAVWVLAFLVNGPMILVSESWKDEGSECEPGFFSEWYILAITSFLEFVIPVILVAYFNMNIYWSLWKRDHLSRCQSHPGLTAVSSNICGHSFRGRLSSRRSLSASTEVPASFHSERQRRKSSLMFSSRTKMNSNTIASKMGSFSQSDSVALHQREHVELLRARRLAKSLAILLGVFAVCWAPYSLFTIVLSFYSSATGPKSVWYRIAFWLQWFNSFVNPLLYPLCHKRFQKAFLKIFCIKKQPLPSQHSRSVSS

Compound: O=C(O)c1cc(-c2ccc(Br)cc2)cc(-n2cc(-c3ccc(C(F)(F)F)cc3)nn2)c1
- IC50 (P2Y purinoceptor 14): > 10000 nM

Compound: CN(C)C(=O)COC(=O)c1cc(-c2ccc(-c3cc(CO)on3)cc2)c2ccc(-c3ccc(C(F)(F)F)cc3)cc2c1
- half-life (liver carboxylesterase [1]): > 72 h
- metabolised at 72 h (liver carboxylesterase [2]): 32.6%
- Stabilty [3]: Stable
- Activity (Mus musculus): Active

Compound: CN(C)C(=O)COC(=O)c1cc(-c2ccc(C3CCNCC3)cc2)cc(-n2cc(-c3ccc(C(F)(F)F)cc3)nn2)c1
- half-life (liver carboxylesterase [4]): 20.2 min
- Stabilty [3]: Stable

Compound: NC(=O)Cc1ccc(-c2cc(C(=O)O)cc(-n3cc(-c4ccc(C(F)(F)F)cc4)nn3)c2)cc1
- Ki [5]: 931 nM
- Ki (Translocator protein): 2810 nM

Compound: CC(C)(C)OC(=O)NC1(c2ccc(-c3cc(C(=O)O)cc(-n4cc(-c5ccc(C(F)(F)F)cc5)nn4)c3)cc2)CCC1
- IC50 (P2Y purinoceptor 14): > 10000 nM

Compound: O=CN1CCC(c2ccc(-c3cc(C(=O)O)cc4cc(-c5ccc(C(F)(F)F)cc5)ccc34)cc2)CC1
- Ki [6]: 759 nM
- inhibition [7]: 81%
- Ki [8]: 2650 nM
- Ki [9]: 3970 nM
- inhibition [10]: 82%
- Ki (D(1A) dopamine receptor): 520 nM
- Ki (D(1B) dopamine receptor): 1440 nM
- inhibition [11]: 84%
- Ki (Histamine H4 receptor): 1700 nM
